For this experiment, the target named is T1, human mGlu5a receptor (Homo sapiens, UniProt P41594).
T1 construct: expressed in transfected cells
The experiment can be described thus: Intracellular Ca2+ mobilization assay. In kind it is cell-based. The settings on record: for Emax: HEK293, read-out: Efficacy (%); for EC50: HEK-293 cells stably transfected with human mGlu5a receptor, pre-incubation 10-30 min with test compound, then L-glutamate at EC20 (typically around 80 μM), Fluo-4AM fluorescence, read-out: EC50 (nM) mGluR5 PAM. On the procedure: A monoclonal HEK-293 cell line stably transfected with a cDNA encoding for the human mGlu5a receptor was generated; for the work with mGlu5 Positive Allosteric Modulators (PAMs), a cell line with low receptor expression levels and low constitutive receptor activity was selected to allow the differentiation of agonistic versus PAM activity. Cells were cultured according to standard protocols (Freshney, 2000) in Dulbecco's Modified Eagle Medium with high glucose supplemented with 1 mM glutamine, 10% (vol/vol) heat-inactivated bovine calf serum, Penicillin/Streptomycin, 50 μg/ml hygromycin and 15 μg/ml blasticidin (all cell culture reagents and antibiotics from Invitrogen, Basel, Switzerland).
About 24 hrs before an experiment, 5×10^4 cells/well were seeded in poly-D-lysine coated, black/clear-bottomed 96-well plates. The cells were loaded with 2.5 μM Fluo-4AM in loading buffer (1×HBSS, 20 mM HEPES) for 1 hr at 37° C. and washed five times with loading buffer. The cells were transferred into a Functional Drug Screening System 7000 (Hamamatsu, Paris, France), and 11 half logarithmic serial dilutions of test compound at 37° C. were added and the cells were incubated for 10-30 min. with on-line recording of fluorescence. Following this pre-incubation step, the agonist L-glutamate was added to the cells at a concentration corresponding to EC20 (typically around 80 μM) with on-line recording of fluorescence; in order to account for day-to-day variations in the responsiveness of cells, the EC20 of glutamate was determined immediately ahead of each experiment by recording of a full dose-response curve of glutamate.
Responses were measured as peak increase in fluorescence minus basal (i.e. fluorescence without addition of L-glutamate), normalized to the maximal stimulatory effect obtained with saturating concentrations of L-glutamate. Graphs were plotted with the % maximal stimulatory using XLfit, a curve fitting program that iteratively plots the data using Levenburg Marquardt algorithm. The single site competition analysis equation used was y=A+((B−A)/(1+((x/C)D))), where y is the % maximal stimulatory effect, A is the minimum y, B is the maximum y, C is the EC50, x is the log 10 of the concentration of the competing compound and D is the slope of the curve (the Hill Coefficient). From these curves the EC50 (concentration at which half maximal stimulation was achieved), the Hill coefficient as well as the maximal response in % of the maximal stimulatory effect obtained with saturating concentrations of L-glutamate were calculated.
A depression of the signal observed after addition of the EC20 concentration of L-glutamate was indicative of an inhibitory activity of the test compound.
A general note: Calcium assays in cells follow changes in intracellular calcium, usually with a dye or a luminescent sensor.

Where [1] appears, read: maximal response in % of the maximal stimulatory effect obtained with saturating concentrations of L-glutamate, HEK-293 human mGlu5a cells, L-glutamate at EC20.

T1 sequence (P41594 21-1180 isoform P41594-2 limits assumed): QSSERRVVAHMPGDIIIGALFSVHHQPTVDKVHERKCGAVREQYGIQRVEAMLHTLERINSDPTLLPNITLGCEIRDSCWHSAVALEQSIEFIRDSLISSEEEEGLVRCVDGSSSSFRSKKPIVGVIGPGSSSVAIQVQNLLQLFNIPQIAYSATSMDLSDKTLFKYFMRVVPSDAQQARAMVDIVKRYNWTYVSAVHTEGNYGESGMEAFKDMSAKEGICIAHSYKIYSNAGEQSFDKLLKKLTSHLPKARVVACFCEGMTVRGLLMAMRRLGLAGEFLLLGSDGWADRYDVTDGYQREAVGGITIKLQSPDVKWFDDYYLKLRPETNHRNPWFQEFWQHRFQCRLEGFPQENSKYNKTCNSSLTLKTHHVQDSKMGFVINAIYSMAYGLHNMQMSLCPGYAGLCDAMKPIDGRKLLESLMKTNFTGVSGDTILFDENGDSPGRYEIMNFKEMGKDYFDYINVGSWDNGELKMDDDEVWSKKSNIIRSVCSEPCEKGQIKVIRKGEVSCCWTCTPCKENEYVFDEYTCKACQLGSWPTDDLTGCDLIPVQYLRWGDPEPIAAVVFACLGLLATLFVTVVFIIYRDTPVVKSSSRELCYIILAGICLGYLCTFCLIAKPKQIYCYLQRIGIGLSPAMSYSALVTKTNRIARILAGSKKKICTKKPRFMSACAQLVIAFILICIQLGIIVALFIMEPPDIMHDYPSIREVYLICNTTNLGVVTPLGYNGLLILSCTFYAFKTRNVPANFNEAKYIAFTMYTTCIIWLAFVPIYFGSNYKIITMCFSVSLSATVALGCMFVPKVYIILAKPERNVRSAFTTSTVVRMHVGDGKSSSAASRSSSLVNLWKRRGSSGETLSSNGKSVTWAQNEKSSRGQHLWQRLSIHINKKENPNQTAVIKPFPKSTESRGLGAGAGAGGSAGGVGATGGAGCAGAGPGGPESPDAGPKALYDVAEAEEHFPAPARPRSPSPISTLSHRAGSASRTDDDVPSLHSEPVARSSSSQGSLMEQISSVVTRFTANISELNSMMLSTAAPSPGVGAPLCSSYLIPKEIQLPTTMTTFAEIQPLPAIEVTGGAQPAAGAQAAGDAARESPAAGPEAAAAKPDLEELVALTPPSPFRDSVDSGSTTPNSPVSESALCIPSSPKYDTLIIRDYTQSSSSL

Usually EC50 stands for the concentration giving half of the maximal effect. Regarding `C(#Cc1cnc(NC2CCCCC2)nc1)c1ccccc1` [Example 15, Cyclohexyl-(5-phenylethynyl-pyrimidin-2-yl)-amine], the EC50 was found to be 52 nM. Also, under setting [1], the Emax stood at 112%.

With `CC(c1ccc(C#Cc2ccccc2)cn1)N1CCOC1=O` (racemic) [Example 41, rac-3-[1-(5-Phenylethynyl-pyridin-2-yl)-ethyl]-oxazolidin-2-one], the EC50 was 94 nM. The Emax under setting [1] is 59%.

`CC1(COc2ncc(C#Cc3ccccc3)cn2)COC1` [Example 24, 2-(3-Methyl-oxetan-3-ylmethoxy)-5-phenylethynyl-pyrimidine]: the EC50 was found to be 101 nM. In addition, the Emax under setting [1] came to 88%.

`CC1(CNc2ncc(C#Cc3ccccc3)cn2)COC1` [Example 21, (3-Methyl-oxetan-3-ylmethyl)-(5-phenylethynyl-pyrimidin-2-yl)-amine]: the EC50 was 78 nM. Also, under setting [1], the Emax turned out to be 45%.

`CC1(C)CC(=O)N(Cc2ccc(C#Cc3ccccc3)cn2)C1` [Example 33, 4,4-Dimethyl-1-(5-phenylethynyl-pyridin-2-ylmethyl)-pyrrolidin-2-one]: the EC50 was found to be 132 nM. In addition, under setting [1], the Emax was found to be 177%.

As for `OC1CCC(Nc2ncc(C#Cc3ccccc3)cn2)C1` (mixture of isomers) [Example 11, 3-(5-phenylethynyl-pyrimidin-2-ylamino)-cyclopentanol], the EC50 turned out to be 322 nM. Also, the Emax under setting [1] was found to be 78%.

In the case of `CN(c1ccc(C#Cc2ccccc2)cn1)C1CCOCC1` [Example 44], the EC50 came to 338 nM. Moreover, the Emax under setting [1] came out at 103%.

For the molecule `CC1(C)CCC(=O)N1Cc1ccc(C#Cc2ccccc2)cn1` [Example 36, 5,5-Dimethyl-1-(5-phenylethynyl-pyridin-2-ylmethyl)-pyrrolidin-2-one], the EC50 stood at 84 nM. In addition, the Emax under setting [1] came out at 82%.

Regarding `OC[C@H]1CC[C@H](Nc2ncc(C#Cc3ccccc3)cn2)CC1` [Example 6, trans-[4-(5-Phenylethynyl-pyrimidin-2-ylamino)-cyclohexyl]-methanol], the EC50 amounted to 844 nM. The Emax under setting [1] was determined as 147%.

As to `C(#Cc1cnc(NC2CCCC2)nc1)c1ccccc1` [Example 1, Cyclopentyl-(5-phenylethynyl-pyrimidin-2-yl)-amine], the EC50 was 26 nM. The Emax under setting [1] was 40%.

As to `OC1CCC(Oc2ncc(C#Cc3ccccc3)cc2F)CC1` (racemic) [Example 27, rac-4-(3-Fluoro-5-phenylethynyl-pyridin-2-yloxy)-cyclohexanol], the EC50 is 200 nM. Under setting [1], the Emax is 90%.

Regarding `O[C@H]1CC[C@H](Nc2ncc(C#Cc3ccccc3)cn2)CC1` [Example 7, trans-4-(5-Phenylethynyl-pyrimidin-2-ylamino)-cyclohexanol], the EC50 is 179 nM. The Emax under setting [1] amounted to 100%.

Regarding `C(#Cc1cnc(NC2CCOCC2)nc1)c1ccccc1` [Example 2, (5-Phenylethynyl-pyrimidin-2-yl)-(tetrahydro-pyran-4-yl)-amine], the EC50 is 65 nM. In addition, the Emax under setting [1] came to 46%.

On to `CC1(COc2ncc(C#Cc3ccccc3)cc2F)COC1` [Example 29, 3-Fluoro-2-(3-methyl-oxetan-3-ylmethoxy)-5-phenylethynyl-pyridine], for which the EC50 stood at 135 nM. In addition, the Emax under setting [1] was 71%.

Regarding `CN(c1ncc(C#Cc2ccccc2)cn1)C1CCOCC1` [Example 43, Methyl-(5-phenylethynyl-pyrimidin-2-yl)-(tetrahydro-pyran-4-yl)-amine], the EC50 was 195 nM. Moreover, under setting [1], the Emax was 84%.

For `CC1CCN(Cc2ccc(C#Cc3ccccc3)cn2)C1=O` (racemic) [Example 39, rac-3-Methyl-1-(5-phenylethynyl-pyridin-2-ylmethyl)-pyrrolidin-2-one], the EC50 worked out at 93 nM. Further, under setting [1], the Emax was determined as 120%.

With `OC[C@H]1C[C@H](Oc2ncc(C#Cc3ccccc3)cn2)C1` [Example 26, trans-[3-(5-Phenylethynyl-pyrimidin-2-yloxy)-cyclobutyl]-methanol], the EC50 came to 99 nM. Under setting [1], the Emax is 117%.

With `C(#Cc1ccc(OC2CCCCC2)nc1)c1ccccc1` [Example 28, 2-Cyclohexyloxy-5-phenylethynyl-pyridine], the EC50 turned out to be 45 nM. Further, the Emax under setting [1] came out at 61%.

Regarding `O[C@H]1CC[C@H](Nc2ncc(C#Cc3ccccc3)cc2F)CC1` [Example 18, trans-4-(3-Fluoro-5-phenylethynyl-pyridin-2-ylamino)-cyclohexanol], the EC50 is 192 nM. Also, the Emax under setting [1] stood at 116%.

With `O=C1N(Cc2ccc(C#Cc3ccccc3)cn2)CCN1c1ccccc1` [Example 37, 1-Phenyl-3-(5-phenylethynyl-pyridin-2-ylmethyl)-imidazolidin-2-one], the EC50 was 103 nM. The Emax under setting [1] turned out to be 84%.

Consider `CC1(C)CCC(=O)N(Cc2ccc(C#Cc3ccccc3)cn2)C1` [Example 38, 5,5-Dimethyl-1-(5-phenylethynyl-pyridin-2-ylmethyl)-piperidin-2-one], for which the EC50 came out at 161 nM. Also, the Emax under setting [1] was 94%.

For `O[C@H]1CC[C@H](Oc2ncc(C#Cc3ccccc3)cn2)CC1` [Example 23, trans-4-(5-Phenylethynyl-pyrimidin-2-yloxy)-cyclohexanol], the 50% effective concentration (EC50) was determined as 110 nM. The Emax under setting [1] is 94%.

On to `CC1(C)CC(Nc2ncc(C#Cc3ccccc3)cn2)CCC1O` (single isomer, unassigned) [Example 17, (1S,4S or 1R,4R)-2,2-Dimethyl-4-(5-phenylethynyl-pyrimidin-2-ylamino)-cyclohexanol], for which the EC50 is 94 nM. Also, under setting [1], the “Efficacy (%)” value was determined as 93%.

As for `COC1CCCC(OC)C1Nc1ncc(C#Cc2ccccc2)cn1` (mixture of isomers) [Example 5, (2,6-dimethoxy-cyclohexyl)-(5-phenylethynyl-pyrimidin-2-yl)-amine], the EC50 turned out to be 345 nM. Also, the Emax under setting [1] stood at 105%.

Turning to `OC1CCCC1Nc1ncc(C#Cc2ccccc2)cn1` (mixture of isomers) [Example 12, 2-(5-phenylethynyl-pyrimidin-2-ylamino)-cyclopentanol], the EC50 was determined as 560 nM. In addition, under setting [1], the Emax worked out at 80%.

With `C[C@H]1CC[C@H](Nc2ncc(C#Cc3ccccc3)cn2)CC1` [Example 19, trans-(4-Methyl-cyclohexyl)-(5-phenylethynyl-pyrimidin-2-yl)-amine], the EC50 was 75 nM. Besides, the Emax under setting [1] stood at 55%.

For the molecule `C(#Cc1ccc(NC2CCCC2)nc1)c1ccccc1` [Example 13, Cyclopentyl-(5-phenylethynyl-pyridin-2-yl)-amine], the EC50 amounted to 43 nM. In addition, the Emax under setting [1] was 43%.

As to `O=C1OCCN1Cc1ccc(C#Cc2ccccc2)cn1` [Example 31, 3-(5-Phenylethynyl-pyridin-2-ylmethyl)-oxazolidin-2-one], the EC50 stood at 56 nM. Moreover, the Emax under setting [1] amounted to 122%.

`OC1CCCCC1Nc1ncc(C#Cc2ccccc2)cn1` (mixture of isomers) [Example 10, 2-(5-phenylethynyl-pyrimidin-2-ylamino)-cyclohexanol]: the EC50 was 340 nM. For the same molecule, the Emax under setting [1] came to 72%.

On to `CC1(C)CC(Nc2ncc(C#Cc3ccccc3)cn2)CCC1O` (racemic) [Example 16, 2,2-Dimethyl-4-(5-phenylethynyl-pyrimidin-2-ylamino)-cyclohexanol], for which the EC50 is 324 nM. Besides, the Emax under setting [1] turned out to be 113%.

For `O=C1CCCCN1Cc1ccc(C#Cc2ccccc2)cn1` [Example 32, 1-(5-Phenylethynyl-pyridin-2-ylmethyl)-piperidin-2-one], the EC50 came to 268 nM. Also, the Emax under setting [1] is 145%.

In the case of `CN1CCCN(Cc2ccc(C#Cc3ccccc3)cn2)C1=O` [Example 40, 1-Methyl-3-(5-phenylethynyl-pyridin-2-ylmethyl)-tetrahydro-pyrimidin-2-one], the EC50 amounted to 140 nM. In addition, the Emax under setting [1] worked out at 123%.

Turning to `O[C@H]1C[C@H](COc2ncc(C#Cc3ccccc3)cn2)C1` [Example 25, trans-3-(5-Phenylethynyl-pyrimidin-2-yloxymethyl)-cyclobutanol], the EC50 is 291 nM. For the same molecule, the Emax under setting [1] came out at 133%.

The values above are taken from patent publication US8716316B2 (Hoffmann-La Roche Inc., priority 2009, dated 2014).
